According to PMC4038399, “Experimental validation of [sequence]^comb virtual ligand screening results for eight proteins yields novel nanomolar and micromolar binders” (Journal of Cheminformatics, 2014):
≈ marks a conversion by molar mass, not a printed value. Read-outs that look alike come from different tables or passages of the source.

Columns and labels:
[1] = target: Ubiquitin conjugating enzyme (UCE) (Plasmodium falciparum, UniProt Q8I607); experiment: Thermal shift (thermal melt) assay, Sypro orange; type: binding, P. falciparum; conditions: for Kd: approximate, computed from the thermal shift, read-out: KD (Approx)
Sequence of Ubiquitin conjugating enzyme (UCE) (Q8I607 1-147): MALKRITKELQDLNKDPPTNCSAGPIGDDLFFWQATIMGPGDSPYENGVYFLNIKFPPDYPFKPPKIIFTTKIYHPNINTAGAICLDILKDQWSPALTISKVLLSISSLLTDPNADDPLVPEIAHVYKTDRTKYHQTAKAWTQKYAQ
Procedure: (§1) High throughput thermal shift assays were carried out following established guidelines (Additional file 1: Table S1). Protein melting curves were obtained from samples aliquoted in 96-well plates using a RealPlex quantitative PCR instrument from Eppendorf (Eppendorf, NY, USA), with Sypro orange dye from Invitrogen as the fluorescent probe. A uniform final concentration of 5 X (supplied as a 5000 X stock solution) was used in all experiments. The dye was excited at 465 nm and emission recorded at 580 nm using the instrument’s filters. A heating ramp of 1°C/min from 25°C to 74°C was used, and one data point acquired for each degree increment. For standardization, different buffers and pH were checked. Thereafter, 100 mM HEPES pH 7.3 and 150 mM NaCl were used in all unfolding experiments. The volume of each reaction was 20 μl, and appropriate dye and protein controls were included. All experiments were done with a minimum of two replicates, with the mean value considered for further analysis. Several drugs/small molecules interact with Sypro orange and lead to aberrant signal enhancements. An additional control to rule out drug-dye interaction was carried out with all the constituents kept constant except for the protein of interest. The protein/protein-drug curves were reported after subtracting the respective dye alone/drug-dye curves.
(§2) Each melting curve was assigned a quality score (Q), the ratio of the melting-associated increase in fluorescence (ΔFmelt) to the total fluorescence range (ΔFtotal). Q = 1 is a high-quality curve, while Q = 0 indicates no thermal transition. Though an arbitrary Q value cutoff was not applied to judge curve quality, the curves were manually curated with Q values reported. […] These were ignored (see Table 1).
(§3) Subsequent to standardization, (see SI Methods), the validity of the top 1% of […]^comb’s predictions on the test set of eight diverse proteins was examined. To be conservative, we focused only on those protein/ligand pairs showing single sigmoidal thermal transition curves. The fit to Boltzmann’s equation (Eq. 1) was employed to estimate the melting temperature from the observed intensity, I.
(§4) (4) I=Imin+Imax-Imin/1+e^Tm-T/a
(§5) Imin and Imax are the minimum and maximum intensities; a denotes the slope of the curve at the transition midpoint temperate, Tm. To estimate thermodynamic parameters, both van’t Hoff and Gibbs-Helmholtz analyses were done. To estimate the approximate ligand-binding affinity at Tm, Eq. (2) from reference was used with slight modifications; ΔCp is ignored.
(§6) (5) KLTm=exp-ΔH/R1/Tm-1/To/L
(§7) KL(Tm) is the ligand association constant and [L] is the free ligand concentration at Tm ([LTm] ~ [L]total, when [L]total > > the total concentration of protein. KD is the inverse of KL(Tm).
(§8) Thermal unfolding of the eight benchmark proteins was carried out in a 20 μl reaction mix with 100 mM HEPES pH 7.3, 150 mM NaCl, 5 X Sypro orange dye, 10 μM protein and 1 mM of all the predicted ligands.

[2] = target: Nucleosome assembly protein 1 (NAP1) (Plasmodium knowlesi, UniProt A0A384KYS3); experiment: Thermal shift (thermal melt) assay, Sypro orange; type: binding, P. knowlesi; conditions: for Kd: approximate, computed from the thermal shift
Sequence of Nucleosome assembly protein 1 (NAP1) (A0A384KYS3 entry or part of it): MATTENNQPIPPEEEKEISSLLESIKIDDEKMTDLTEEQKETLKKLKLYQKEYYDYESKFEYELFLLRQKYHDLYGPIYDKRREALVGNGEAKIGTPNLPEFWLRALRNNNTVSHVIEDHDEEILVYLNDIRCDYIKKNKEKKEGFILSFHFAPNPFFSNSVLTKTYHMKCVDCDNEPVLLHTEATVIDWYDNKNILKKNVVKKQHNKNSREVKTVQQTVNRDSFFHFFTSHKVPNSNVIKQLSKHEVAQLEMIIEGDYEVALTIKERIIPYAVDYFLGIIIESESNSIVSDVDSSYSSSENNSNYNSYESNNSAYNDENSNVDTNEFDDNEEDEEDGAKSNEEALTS
Procedure: as §1, §2, §3, §4, §5, §6, §7, §8

[3] = target: T1, Tryptophanyl tRNA synthetase (TrpRS) (Homo sapiens, UniProt P23381); experiment: Thermal shift (thermal melt) assay, Sypro orange; type: binding, H. sapiens; conditions: for Q (quality score): ratio ΔFmelt/ΔFtotal
T1 sequence (P23381 1-471): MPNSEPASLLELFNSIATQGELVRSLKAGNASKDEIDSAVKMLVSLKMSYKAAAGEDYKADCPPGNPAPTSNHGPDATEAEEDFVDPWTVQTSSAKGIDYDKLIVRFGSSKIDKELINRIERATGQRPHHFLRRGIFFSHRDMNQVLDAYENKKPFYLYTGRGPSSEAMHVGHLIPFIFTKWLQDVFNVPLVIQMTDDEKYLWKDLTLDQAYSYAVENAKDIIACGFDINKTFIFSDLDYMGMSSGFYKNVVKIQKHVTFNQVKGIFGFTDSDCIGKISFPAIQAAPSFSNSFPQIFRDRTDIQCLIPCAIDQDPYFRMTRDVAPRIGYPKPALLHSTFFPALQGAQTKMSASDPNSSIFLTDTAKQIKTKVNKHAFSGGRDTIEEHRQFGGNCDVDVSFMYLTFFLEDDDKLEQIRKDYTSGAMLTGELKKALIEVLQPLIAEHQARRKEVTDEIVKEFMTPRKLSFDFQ
Procedure: as §1, with “The dye was excited at 465 nm and emission recorded at 580 nm using the instrument’s filters. A heating ramp of 1°C/min from 25°C to 74°C was used, and one data point acquired for each degree increment.” left out
(§9) Each melting curve was assigned a quality score (Q), the ratio of the melting-associated increase in fluorescence (ΔFmelt) to the total fluorescence range (ΔFtotal). Q = 1 is a high-quality curve, while Q = 0 indicates no thermal transition. Though an arbitrary Q value cutoff was not applied to judge curve quality, the curves were manually curated with Q values reported.
as §3, §4, §5, §6, §7, §8

[4] = tested on: HCT-116 colon carcinoma cell line; experiment: Cytotoxic assay on cancer cell line; type: cell-based; conditions: for HCT-116 (IC-50): inhibitory concentration for 50% growth inhibition
Procedure: Antimicrobial and anti-cancer tests were performed as in [80].

[5] = target: E. coli dihydrofolate reductase (DHFR) (Escherichia coli, UniProt P0ABQ4); experiment: biochemical; type: binding; conditions: Table S3; for Kd: computed from the thermal shifts obtained, read-out: KD (Approx); for Q (quality score): ratio ΔFmelt/ΔFtotal of the melting curve
Sequence of E. coli dihydrofolate reductase (DHFR) (P0ABQ4 whole entry): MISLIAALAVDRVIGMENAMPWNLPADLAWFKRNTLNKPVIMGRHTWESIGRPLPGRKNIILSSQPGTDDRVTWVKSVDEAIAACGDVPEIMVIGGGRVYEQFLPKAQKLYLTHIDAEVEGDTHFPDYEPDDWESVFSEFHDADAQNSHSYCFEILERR
Procedure: as §1, with “The dye was excited at 465 nm and emission recorded at 580 nm using the instrument’s filters. A heating ramp of 1°C/min from 25°C to 74°C was used, and one data point acquired for each degree increment.” left out
as §9, §3, §4, §5, §6, §7, §8

[6] = target: T2, 1000006: catalytic domain of protein tyrosine phosphatase (2G59) (Homo sapiens, UniProt Q16827); experiment: Thermal shift (thermal melt) assay, Sypro orange; type: binding, H. sapiens; conditions: Table S4, protein 1000006
T2 construct: the catalytic domain of PTP from H. sapiens (PDB ID: 2G59) (1000006); New York structural genomics consortium (gift)
T2 sequence (Q16827 938-1195 limits assumed): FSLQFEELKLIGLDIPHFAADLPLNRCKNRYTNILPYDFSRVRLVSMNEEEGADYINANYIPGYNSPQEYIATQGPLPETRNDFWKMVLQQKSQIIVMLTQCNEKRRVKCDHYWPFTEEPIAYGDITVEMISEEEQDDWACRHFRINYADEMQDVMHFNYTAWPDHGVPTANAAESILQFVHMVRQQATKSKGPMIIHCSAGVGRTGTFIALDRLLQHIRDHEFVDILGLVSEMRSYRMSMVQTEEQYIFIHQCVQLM
Procedure: as §1, §2, §3, §4, §5, §6, §7, §8

[7] = target: Catalytic subunit of cAMP-dependent protein kinase (cDPK) (Homo sapiens, UniProt P17612); experiment: Thermal shift (thermal melt) assay, Sypro orange; type: binding, H. sapiens; conditions: for ΔTm: Table S5, 1 mM ligand; for Kd: approximate, computed from the thermal shift, read-out: KD (Approx)
Procedure: as §1, §2, §3, §4, §5, §6, §7, §8

[8] = thermal shift, 1 mM ligand, 10 μM protein
[9] = Table S4, TrpRS, computed from the thermal shifts obtained, read-out: KD (Approx)
[10] = Table S4, TrpRS, in °C (unit assumed)
[11] = approximate, computed from the thermal shift, read-out: KD

## O=C(Nc1ccc(Cl)cc1)c1cc2c(cc1O)[nH]c1ccccc12 [NSC 50651]
[1]
  Q (quality score of melting curve, ΔFmelt/ΔFtotal): 0.13
[1]; Table S5, 1 mM ligand
  ΔTm: 2.25 °C
[1]; listed as 50651
  Kd: 197 µM
[1]; listed as NSC50651
  Kd: 197 µM

## O=C1C[C@@H](c2ccc(O)cc2)Oc2cc(O)cc(O)c21 [NSC 34875]
[2]
  Q (quality score of melting curve, ΔFmelt/ΔFtotal): 0.6
[2]; Table S5, 1 mM ligand
  ΔTm: 1.74 °C
[2]; read-out: KD (Approx)
  Kd: 224 µM

## CCN(CC)CCNC(=O)c1c(C)[nH]c(/C=C2\C(=O)Nc3ccc(F)cc32)c1C [NSC 750690, Sunitinib, reference compound]
[3]; Table S4, TrpRS
  Q (quality score): 1.3
[3]; [8]
  ΔTm: 14.57 °C
[4]; Homo sapiens, HCT-116, inhibitory concentration for 50% growth inhibition, read-out: HCT-116 (IC-50)
  IC50: 1.1 µg/mL (≈ 2.76 µM)
[4]
  HCT-116 (IC-50): 1.11 µg/mL

## O=C1c2cc(O)c(O)cc2OC(c2ccc(O)c(O)c2)C1O (centres unmarked) [NSC 36398]
[2]
  Q (quality score of melting curve, ΔFmelt/ΔFtotal): 0.2
[2]; read-out: KD
  Kd: 180 µM
[2]; read-out: KD (Approx)
  Kd: 180 µM
[2]; [8]
  ΔTm: 2.21 °C

## O=C(Nc1cccc([N+](=O)[O-])c1)c1cc2ccccc2cc1O [NSC 37168]
[3]; [9]
  Kd: ~9.06 µM
[3]; [10]
  ΔTm: 9.9
[3]; Table S4, TrpRS
  Q (quality score): 0.4
[3]; [11]
  Kd: ~9.1 µM
[4]
  HCT-116 (IC-50): 1.34 µg/mL

## CCOc1ccc(NC(=O)c2cc3ccccc3cc2O)cc1 [NSC 50690]
[3]; [9]
  Kd: ~7.74 µM
[3]; [10]
  ΔTm: 10.27
[3]; Table S4, TrpRS
  Q (quality score): 0.8
[3]; [11]
  Kd: 7.7 µM
[5]
  Kd: ~463 µM
  Q (quality score): 0.3
[5]; thermal shift, in °C (unit assumed)
  ΔTm: 0.23
[6]; computed from the thermal shifts obtained, read-out: KD (Approx)
  Kd: ~51.5 µM
[6]; in °C (unit assumed)
  ΔTm: 4.59
[6]; ratio ΔFmelt/ΔFtotal
  Q (quality score): 0.8

## Cc1cc2nc(CS)[nH]c2cc1C [NSC 97104]
[7]
  Q (quality score of melting curve, ΔFmelt/ΔFtotal): 0.5
  ΔTm: 1.01 °C
  Kd: 200 µM

## Nc1ccc(-c2nc3nc(N)nc(N)c3nc2-c2ccc(N)cc2)cc1 [NSC 61642, 6,7-bis(4-aminophenyl) pteridine-2,4-diamine, reference compound]
[5]
  Kd: ~2.03 µM
  Q (quality score): 0.6
[7]
  Q (quality score of melting curve, ΔFmelt/ΔFtotal): 0.4
  ΔTm: 0.71 °C
  Kd: 275 µM
